One experiment addresses Dipeptidyl peptidase 4 (Homo sapiens, UniProt P27487).
Another experiment concerns the target Dipeptidyl peptidase 2 (Homo sapiens, UniProt Q9UHL4). The experiment can be described thus: Inhibition of QPP.
The next experiment concerns the target Dipeptidyl peptidase 8 (Homo sapiens, UniProt Q6V1X1). The experiment is described as follows: Inhibition of DPP8.
A further experiment deals with Dipeptidyl peptidase 9 (Homo sapiens, UniProt Q86TI2). The experiment can be described thus: Inhibition of DPP9.
A further experiment deals with Xaa-Pro aminopeptidase 1 (Homo sapiens, UniProt Q9NQW7). The experiment can be described thus: Inhibition of amino peptidase P.
In the next experiment the target is T1, Xaa-Pro dipeptidase (Homo sapiens, UniProt P12955).
T1 sequence (P12955 whole entry): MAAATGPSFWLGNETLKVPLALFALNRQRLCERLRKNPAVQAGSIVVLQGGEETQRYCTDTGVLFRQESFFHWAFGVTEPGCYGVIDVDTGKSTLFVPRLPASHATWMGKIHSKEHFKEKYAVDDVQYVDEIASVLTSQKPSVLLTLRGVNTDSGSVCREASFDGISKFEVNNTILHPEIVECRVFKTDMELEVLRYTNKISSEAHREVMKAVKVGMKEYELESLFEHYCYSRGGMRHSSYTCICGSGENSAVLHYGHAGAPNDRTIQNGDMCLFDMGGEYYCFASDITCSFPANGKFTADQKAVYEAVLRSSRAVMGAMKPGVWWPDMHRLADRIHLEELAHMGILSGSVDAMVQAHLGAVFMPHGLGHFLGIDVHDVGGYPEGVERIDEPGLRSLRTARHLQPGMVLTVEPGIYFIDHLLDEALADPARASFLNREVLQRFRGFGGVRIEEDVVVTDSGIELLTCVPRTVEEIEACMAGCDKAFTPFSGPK
The experiment is described as follows: Inhibition of prolidase.

A further experiment has as its target T2, Prolyl endopeptidase FAP (Homo sapiens, UniProt Q12884).
T2 sequence (Q12884 whole entry): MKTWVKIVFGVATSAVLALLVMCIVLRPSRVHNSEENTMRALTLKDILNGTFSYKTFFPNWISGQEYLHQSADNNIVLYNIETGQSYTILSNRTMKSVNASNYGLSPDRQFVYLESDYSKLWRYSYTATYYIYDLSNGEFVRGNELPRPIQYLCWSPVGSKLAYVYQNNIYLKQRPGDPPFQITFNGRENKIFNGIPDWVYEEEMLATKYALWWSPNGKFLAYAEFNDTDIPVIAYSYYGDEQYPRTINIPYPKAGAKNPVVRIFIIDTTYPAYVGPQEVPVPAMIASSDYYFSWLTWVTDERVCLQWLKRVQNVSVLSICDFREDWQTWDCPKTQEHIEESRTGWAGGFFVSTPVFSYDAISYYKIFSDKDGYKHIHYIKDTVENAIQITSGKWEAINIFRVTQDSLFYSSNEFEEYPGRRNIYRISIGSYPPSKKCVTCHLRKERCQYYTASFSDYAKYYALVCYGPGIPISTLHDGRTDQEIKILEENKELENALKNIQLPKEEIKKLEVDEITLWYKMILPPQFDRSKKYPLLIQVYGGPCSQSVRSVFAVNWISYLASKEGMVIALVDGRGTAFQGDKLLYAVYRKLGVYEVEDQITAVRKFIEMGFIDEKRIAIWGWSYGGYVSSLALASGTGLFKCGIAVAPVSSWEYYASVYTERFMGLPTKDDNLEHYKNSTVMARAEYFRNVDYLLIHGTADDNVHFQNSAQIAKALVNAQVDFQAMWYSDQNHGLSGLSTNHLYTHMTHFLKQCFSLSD
The experiment is described as follows: Inhibition of FAP.

Dipeptidyl peptidase 8, sequence (Q6V1X1 whole entry): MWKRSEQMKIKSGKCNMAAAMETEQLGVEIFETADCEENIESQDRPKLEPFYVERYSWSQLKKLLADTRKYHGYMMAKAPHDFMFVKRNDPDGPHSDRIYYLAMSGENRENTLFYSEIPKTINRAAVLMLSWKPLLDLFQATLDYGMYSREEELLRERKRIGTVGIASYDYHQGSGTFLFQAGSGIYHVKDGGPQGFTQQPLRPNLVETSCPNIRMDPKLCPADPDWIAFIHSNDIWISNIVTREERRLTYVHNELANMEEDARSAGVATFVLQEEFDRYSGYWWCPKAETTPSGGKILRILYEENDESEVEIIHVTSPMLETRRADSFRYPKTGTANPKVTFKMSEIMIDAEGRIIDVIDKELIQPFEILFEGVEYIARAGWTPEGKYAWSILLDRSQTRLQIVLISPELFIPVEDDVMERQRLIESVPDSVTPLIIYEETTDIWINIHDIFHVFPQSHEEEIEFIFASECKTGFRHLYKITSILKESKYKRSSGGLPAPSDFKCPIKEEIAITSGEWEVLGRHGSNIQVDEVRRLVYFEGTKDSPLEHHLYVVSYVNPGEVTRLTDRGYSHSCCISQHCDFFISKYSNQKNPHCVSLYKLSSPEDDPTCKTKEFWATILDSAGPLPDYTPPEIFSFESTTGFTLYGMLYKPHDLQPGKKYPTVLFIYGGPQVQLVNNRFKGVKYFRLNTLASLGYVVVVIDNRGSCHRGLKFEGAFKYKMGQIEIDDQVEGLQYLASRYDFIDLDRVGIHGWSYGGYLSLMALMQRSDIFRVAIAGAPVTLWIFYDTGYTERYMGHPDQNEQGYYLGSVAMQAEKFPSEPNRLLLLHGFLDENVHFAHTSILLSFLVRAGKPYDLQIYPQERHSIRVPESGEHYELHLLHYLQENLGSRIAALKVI
Xaa-Pro aminopeptidase 1, sequence (Q9NQW7 whole entry): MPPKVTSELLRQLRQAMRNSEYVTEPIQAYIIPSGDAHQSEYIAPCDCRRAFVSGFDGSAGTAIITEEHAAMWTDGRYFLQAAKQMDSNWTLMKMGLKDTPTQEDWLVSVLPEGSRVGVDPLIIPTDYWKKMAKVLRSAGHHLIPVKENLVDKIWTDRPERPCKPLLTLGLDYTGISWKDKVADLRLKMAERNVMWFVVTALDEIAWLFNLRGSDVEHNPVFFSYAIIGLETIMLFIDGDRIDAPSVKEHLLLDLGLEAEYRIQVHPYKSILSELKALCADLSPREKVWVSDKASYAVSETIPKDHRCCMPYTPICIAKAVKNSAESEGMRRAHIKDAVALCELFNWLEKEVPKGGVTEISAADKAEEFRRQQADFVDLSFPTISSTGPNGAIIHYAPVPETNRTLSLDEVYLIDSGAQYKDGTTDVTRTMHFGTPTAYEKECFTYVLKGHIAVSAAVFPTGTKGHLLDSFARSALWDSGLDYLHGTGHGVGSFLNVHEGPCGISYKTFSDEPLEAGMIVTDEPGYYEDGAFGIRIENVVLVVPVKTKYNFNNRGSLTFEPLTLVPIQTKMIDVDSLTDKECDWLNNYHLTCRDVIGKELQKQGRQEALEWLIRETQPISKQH
Dipeptidyl peptidase 4, sequence (P27487 whole entry): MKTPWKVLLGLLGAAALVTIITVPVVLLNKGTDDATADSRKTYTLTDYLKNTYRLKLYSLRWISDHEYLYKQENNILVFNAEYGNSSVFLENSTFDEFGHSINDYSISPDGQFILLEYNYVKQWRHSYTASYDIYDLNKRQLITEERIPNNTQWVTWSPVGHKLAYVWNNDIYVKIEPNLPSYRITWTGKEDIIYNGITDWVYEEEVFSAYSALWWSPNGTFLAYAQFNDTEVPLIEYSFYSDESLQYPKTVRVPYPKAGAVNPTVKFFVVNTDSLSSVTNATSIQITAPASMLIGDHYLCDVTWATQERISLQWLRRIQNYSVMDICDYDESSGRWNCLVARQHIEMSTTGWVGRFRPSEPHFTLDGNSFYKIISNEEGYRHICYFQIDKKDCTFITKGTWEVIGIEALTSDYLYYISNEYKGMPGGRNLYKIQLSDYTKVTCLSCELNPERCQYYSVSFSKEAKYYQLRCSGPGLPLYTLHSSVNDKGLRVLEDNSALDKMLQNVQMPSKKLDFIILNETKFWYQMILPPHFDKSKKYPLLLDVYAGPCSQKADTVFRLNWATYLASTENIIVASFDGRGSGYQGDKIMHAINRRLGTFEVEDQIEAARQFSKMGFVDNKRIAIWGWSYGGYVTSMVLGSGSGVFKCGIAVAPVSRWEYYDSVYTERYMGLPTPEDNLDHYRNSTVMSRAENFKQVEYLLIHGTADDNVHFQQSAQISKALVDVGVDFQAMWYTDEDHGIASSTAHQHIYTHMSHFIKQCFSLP
Dipeptidyl peptidase 9, sequence (Q86TI2 whole entry): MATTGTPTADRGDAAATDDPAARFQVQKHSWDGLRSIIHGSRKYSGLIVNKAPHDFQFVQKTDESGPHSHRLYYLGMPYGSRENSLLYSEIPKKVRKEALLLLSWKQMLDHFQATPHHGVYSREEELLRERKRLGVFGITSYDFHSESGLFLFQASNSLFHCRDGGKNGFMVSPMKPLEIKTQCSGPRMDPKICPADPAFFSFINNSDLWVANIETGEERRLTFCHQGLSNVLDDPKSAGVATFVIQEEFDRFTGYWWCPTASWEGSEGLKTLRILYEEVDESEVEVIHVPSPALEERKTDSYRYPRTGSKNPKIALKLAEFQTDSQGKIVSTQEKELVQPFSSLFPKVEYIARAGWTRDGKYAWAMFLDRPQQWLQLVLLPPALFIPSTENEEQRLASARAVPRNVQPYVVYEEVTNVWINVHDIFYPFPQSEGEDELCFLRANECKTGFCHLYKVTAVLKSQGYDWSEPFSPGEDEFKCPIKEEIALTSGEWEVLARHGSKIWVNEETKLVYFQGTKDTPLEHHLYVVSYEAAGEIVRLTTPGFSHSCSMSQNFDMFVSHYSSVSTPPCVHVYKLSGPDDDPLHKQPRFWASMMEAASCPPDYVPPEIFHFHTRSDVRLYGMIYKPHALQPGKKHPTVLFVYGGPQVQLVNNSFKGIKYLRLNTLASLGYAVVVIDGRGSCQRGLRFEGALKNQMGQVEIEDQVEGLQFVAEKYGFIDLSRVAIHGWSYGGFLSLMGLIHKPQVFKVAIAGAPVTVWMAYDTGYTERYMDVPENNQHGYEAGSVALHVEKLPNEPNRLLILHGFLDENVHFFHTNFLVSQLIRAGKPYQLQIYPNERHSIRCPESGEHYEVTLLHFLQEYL

On to `CC1c2nnc(C(F)(F)F)n2C(C)CN1C(=O)C[C@H](N)Cc1cc(F)c(F)cc1F` (stereo in doubt; 16d), for which the IC50 against Dipeptidyl peptidase 4 is 11 nM; at Dipeptidyl peptidase 2, above 100 µM; at Dipeptidyl peptidase 8 it was 44 µM; on Dipeptidyl peptidase 9, 62 µM; on Xaa-Pro aminopeptidase 1, above 10 µM; against Xaa-Pro dipeptidase, above 10 µM. The IC50 on Prolyl endopeptidase FAP was above 10 µM.
As for `CCC1c2nnc(C(F)(F)F)n2CCN1C(=O)C[C@H](N)Cc1cc(F)c(F)cc1F` (stereo in doubt; 38a), the IC50 on Dipeptidyl peptidase 4 is 113 nM; against Dipeptidyl peptidase 2 it was above 100 µM; against Dipeptidyl peptidase 8, above 100 µM; at Dipeptidyl peptidase 9, above 100 µM; against Xaa-Pro aminopeptidase 1 it was above 10 µM; against Xaa-Pro dipeptidase, above 10 µM. Moreover, the IC50 against Prolyl endopeptidase FAP was above 10 µM.
Consider `CCC1c2nnc(C(F)(F)F)n2CCN1C(=O)C[C@H](N)Cc1cc(F)c(F)cc1F` (stereo in doubt; 38b), for which the IC50 against Dipeptidyl peptidase 4 is 5 nM; against Dipeptidyl peptidase 2, 47 µM; against Dipeptidyl peptidase 8 it was 8 µM; against Dipeptidyl peptidase 9, above 100 µM; on Xaa-Pro aminopeptidase 1 it was above 10 µM; against Xaa-Pro dipeptidase, above 10 µM. The molecule also registered an IC50 against Prolyl endopeptidase FAP above 10 µM.
With `N[C@@H](CC(=O)N1CCn2c(nnc2C(F)(F)F)C1CC(F)(F)F)Cc1cc(F)c(F)cc1F` (stereo in doubt; 39a), the IC50 against Dipeptidyl peptidase 4 is 123 nM; against Dipeptidyl peptidase 2, 30 µM; on Dipeptidyl peptidase 8, above 100 µM; on Dipeptidyl peptidase 9, above 100 µM; against Xaa-Pro aminopeptidase 1, above 10 µM; on Xaa-Pro dipeptidase, above 10 µM. On Prolyl endopeptidase FAP, this molecule registered an IC50 above 10 µM.
Regarding `N[C@@H](CC(=O)N1CCn2c(nnc2C(F)(F)F)C1CC(F)(F)F)Cc1cc(F)c(F)cc1F` (stereo in doubt; 39b), the IC50 against Dipeptidyl peptidase 4 was 5.7 nM; on Dipeptidyl peptidase 2, 60 µM; against Dipeptidyl peptidase 8, 1.6 µM; at Dipeptidyl peptidase 9, 26 µM; on Xaa-Pro aminopeptidase 1, above 10 µM; on Xaa-Pro dipeptidase it was above 10 µM. The IC50 at Prolyl endopeptidase FAP was above 10 µM.
Turning to `C=CCC1c2nnc(C(F)(F)F)n2CCN1C(=O)C[C@H](N)Cc1cc(F)c(F)cc1F` (stereo in doubt; 40a), the concentration for half-maximal inhibition (IC50) against Dipeptidyl peptidase 4 is 1.5 nM; against Dipeptidyl peptidase 2, 33 µM; at Dipeptidyl peptidase 8, 3 µM; at Dipeptidyl peptidase 9, 41 µM; on Xaa-Pro aminopeptidase 1, above 10 µM; at Xaa-Pro dipeptidase, above 10 µM. The molecule also came in with an IC50 against Prolyl endopeptidase FAP above 10 µM.
As for `C=CCC1c2nnc(C(F)(F)F)n2CCN1C(=O)C[C@H](N)Cc1cc(F)c(F)cc1F` (stereo in doubt; 40b), the IC50 against Dipeptidyl peptidase 4 is 32 nM; against Dipeptidyl peptidase 2, 62 µM; against Dipeptidyl peptidase 8, 72 µM; at Dipeptidyl peptidase 9 it was above 100 µM; on Xaa-Pro aminopeptidase 1, above 10 µM; against Xaa-Pro dipeptidase it was above 10 µM. The molecule further displayed an IC50 against Prolyl endopeptidase FAP above 10 µM.
As to `CN(C)C(=O)CC1c2nnc(C(F)(F)F)n2CCN1C(=O)C[C@H](N)Cc1cc(F)c(F)cc1F` (stereo in doubt; 41a), the IC50 against Dipeptidyl peptidase 4 is 377 nM; at Dipeptidyl peptidase 2 it was above 100 µM; on Dipeptidyl peptidase 8, above 100 µM; at Dipeptidyl peptidase 9, above 100 µM; against Xaa-Pro aminopeptidase 1, above 10 µM; on Xaa-Pro dipeptidase, above 10 µM. At Prolyl endopeptidase FAP, this molecule displayed an IC50 above 10 µM.
Consider `N[C@@H](CC(=O)N1CCn2c(nnc2C(F)(F)F)C1Cc1ccccc1)Cc1cc(F)c(F)cc1F` (stereo in doubt; 42b), for which the IC50 against Dipeptidyl peptidase 4 is 0.66 nM; on Dipeptidyl peptidase 2, 52 µM; against Dipeptidyl peptidase 8, 0.622 µM; at Dipeptidyl peptidase 9, 24 µM; at Xaa-Pro aminopeptidase 1 it was above 10 µM; on Xaa-Pro dipeptidase, above 10 µM. At Prolyl endopeptidase FAP, this molecule registered an IC50 above 10 µM.
Consider `COc1ccc(CC2c3nnc(C(F)(F)F)n3CCN2C(=O)C[C@H](N)Cc2cc(F)c(F)cc2F)cc1` (stereo in doubt; 43a), for which the IC50 is 320 nM against Dipeptidyl peptidase 4; above 100 µM on Dipeptidyl peptidase 2; above 100 µM against Dipeptidyl peptidase 8; above 100 µM against Dipeptidyl peptidase 9; above 10 µM against Xaa-Pro aminopeptidase 1; above 10 µM against Xaa-Pro dipeptidase. On Prolyl endopeptidase FAP, this molecule came in with an IC50 above 10 µM.
Consider `COc1ccc(CC2c3nnc(C(F)(F)F)n3CCN2C(=O)C[C@H](N)Cc2cc(F)c(F)cc2F)cc1` (stereo in doubt; 43b), for which the IC50 at Dipeptidyl peptidase 4 was 0.43 nM; at Dipeptidyl peptidase 2, 57 µM; against Dipeptidyl peptidase 8 it was 0.367 µM; against Dipeptidyl peptidase 9, 18 µM; on Xaa-Pro aminopeptidase 1 it was above 10 µM; against Xaa-Pro dipeptidase, above 10 µM. The molecule further showed an IC50 against Prolyl endopeptidase FAP above 10 µM.
On to `N[C@@H](CC(=O)N1CCn2c(nnc2C(F)(F)F)C1Cc1ccccc1C(F)(F)F)Cc1cc(F)c(F)cc1F` (stereo in doubt; 44a), for which the IC50 is 438 nM against Dipeptidyl peptidase 4; 83 µM at Dipeptidyl peptidase 2; above 100 µM on Dipeptidyl peptidase 8; above 100 µM against Dipeptidyl peptidase 9; above 10 µM against Xaa-Pro aminopeptidase 1; above 10 µM on Xaa-Pro dipeptidase. Moreover, the IC50 against Prolyl endopeptidase FAP is above 10 µM.
On to `N[C@@H](CC(=O)N1CCn2c(nnc2C(F)(F)F)C1Cc1ccccc1C(F)(F)F)Cc1cc(F)c(F)cc1F` (stereo in doubt; 44b), for which the IC50 was 0.31 nM on Dipeptidyl peptidase 4; 41 µM at Dipeptidyl peptidase 2; 8 µM against Dipeptidyl peptidase 8; above 100 µM at Dipeptidyl peptidase 9; above 10 µM against Xaa-Pro aminopeptidase 1; above 10 µM against Xaa-Pro dipeptidase. In addition, the IC50 at Prolyl endopeptidase FAP was above 10 µM.
On to `N[C@@H](CC(=O)N1CCn2c(nnc2C(F)(F)F)C1Cc1ccccc1F)Cc1cc(F)c(F)cc1F` (stereo in doubt; 45a), for which the IC50 against Dipeptidyl peptidase 4 was 131 nM; on Dipeptidyl peptidase 2, 76 µM; on Dipeptidyl peptidase 8 it was above 100 µM; against Dipeptidyl peptidase 9 it was above 100 µM; on Xaa-Pro aminopeptidase 1, above 10 µM; on Xaa-Pro dipeptidase, above 10 µM. Further, the IC50 on Prolyl endopeptidase FAP is above 10 µM.
As for `N[C@@H](CC(=O)N1CCn2c(nnc2C(F)(F)F)C1C(O)c1ccc(F)cc1)Cc1cc(F)c(F)cc1F` (stereo in doubt; 47a), the IC50 is 430 nM against Dipeptidyl peptidase 4; 48 µM at Dipeptidyl peptidase 2; above 100 µM against Dipeptidyl peptidase 8; above 100 µM on Dipeptidyl peptidase 9; above 10 µM at Xaa-Pro aminopeptidase 1; above 10 µM against Xaa-Pro dipeptidase. The IC50 at Prolyl endopeptidase FAP was above 10 µM.
On to `N[C@@H](CC(=O)N1CCn2c(nnc2C(F)(F)F)C1C(O)c1ccc(F)cc1)Cc1cc(F)c(F)cc1F` (stereo in doubt; 47c), for which the IC50 against Dipeptidyl peptidase 4 was 90 nM; at Dipeptidyl peptidase 2 it was above 100 µM; at Dipeptidyl peptidase 8 it was 40 µM; on Dipeptidyl peptidase 9, above 100 µM; against Xaa-Pro aminopeptidase 1 it was above 10 µM; at Xaa-Pro dipeptidase, above 10 µM. On Prolyl endopeptidase FAP, this molecule had an IC50 above 10 µM.
As to `N[C@@H](CC(=O)N1CCn2c(nnc2C(F)(F)F)C1C(O)c1ccc(F)cc1)Cc1cc(F)c(F)cc1F` (stereo in doubt; 47d), the half-maximal inhibitory concentration (IC50) is 0.5 nM at Dipeptidyl peptidase 4; 41 µM on Dipeptidyl peptidase 2; 0.628 µM at Dipeptidyl peptidase 8; above 100 µM against Dipeptidyl peptidase 9; above 10 µM against Xaa-Pro aminopeptidase 1; above 10 µM on Xaa-Pro dipeptidase. Also, the IC50 at Prolyl endopeptidase FAP is above 10 µM.
In the case of `N[C@@H](CC(=O)N1CCn2c(nnc2C(F)(F)F)C1Cc1cc(C(F)(F)F)cc(C(F)(F)F)c1)Cc1cc(F)c(F)cc1F` (stereo in doubt; 48a), the IC50 on Dipeptidyl peptidase 4 was 587 nM; against Dipeptidyl peptidase 2, above 100 µM; at Dipeptidyl peptidase 8, above 100 µM; against Dipeptidyl peptidase 9, above 100 µM; against Xaa-Pro aminopeptidase 1, above 10 µM; against Xaa-Pro dipeptidase, above 10 µM. The molecule further registered an IC50 at Prolyl endopeptidase FAP above 10 µM.
As to `N[C@@H](CC(=O)N1CCn2c(nnc2C(F)(F)F)C1Cc1ccccn1)Cc1cc(F)c(F)cc1F` (stereo in doubt; 49a), the IC50 at Dipeptidyl peptidase 4 is 132 nM; against Dipeptidyl peptidase 2 it was above 100 µM; at Dipeptidyl peptidase 8 it was above 100 µM; against Dipeptidyl peptidase 9, above 100 µM; at Xaa-Pro aminopeptidase 1, above 10 µM; against Xaa-Pro dipeptidase, above 10 µM. The IC50 on Prolyl endopeptidase FAP is above 10 µM.

As usually defined, the IC50 is the concentration needed to halve the response being measured. A lower IC50 goes with inhibition by little substance.

The values above are taken from ChEMBL document CHEMBL1140747, “Discovery of potent and selective dipeptidyl peptidase IV inhibitors derived from beta-aminoamides bearing subsituted triazolopiperazines” (J Med Chem, 2008).
